This is an account of results in US12240862B2, “Inhibitors of peptidylarginine deiminases” (Gilead Sciences, Inc., priority 2020, dated 2025).

For the experiment, the target named is T1, human PAD4 (Homo sapiens, UniProt Q9UM07).
T1 construct: human PAD4 (NM_012387), A2P663, was PCR amplified; His-SUMO (N, cleaved yes); made in house; host or cells: E. coli BL21(DE3)
T1 sequence (Q9UM07 2-663): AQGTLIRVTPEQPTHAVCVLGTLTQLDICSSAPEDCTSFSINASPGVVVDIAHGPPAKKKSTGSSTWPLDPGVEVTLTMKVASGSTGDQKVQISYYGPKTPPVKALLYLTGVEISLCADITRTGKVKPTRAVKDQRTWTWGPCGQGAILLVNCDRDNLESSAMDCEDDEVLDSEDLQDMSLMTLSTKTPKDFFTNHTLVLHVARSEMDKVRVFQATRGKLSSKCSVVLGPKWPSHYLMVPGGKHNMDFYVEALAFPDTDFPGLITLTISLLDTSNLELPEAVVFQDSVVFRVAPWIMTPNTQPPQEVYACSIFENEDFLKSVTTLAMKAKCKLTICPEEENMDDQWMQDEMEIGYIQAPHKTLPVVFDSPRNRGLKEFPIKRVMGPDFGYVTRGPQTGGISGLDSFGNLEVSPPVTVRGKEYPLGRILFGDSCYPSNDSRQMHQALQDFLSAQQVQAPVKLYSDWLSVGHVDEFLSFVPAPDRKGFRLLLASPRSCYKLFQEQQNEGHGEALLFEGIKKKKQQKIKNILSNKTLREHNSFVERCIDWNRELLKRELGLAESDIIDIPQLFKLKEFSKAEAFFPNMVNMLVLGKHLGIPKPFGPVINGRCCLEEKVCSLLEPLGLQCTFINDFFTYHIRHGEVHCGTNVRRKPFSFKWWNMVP
The experiment is described as follows: In vitro PAD4 BAEE biochemical assay. The following applies: human PAD4, BAEE substrate; 5 nM PAD4, 2 mM calcium chloride, 3 mM BAEE; geometric mean of multiple experiments. The gist of the method: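 Ammonia generated from BAEE serves as the readout, measured by o-phthalaldehyde after EDTA termination. Final conditions: 5 nM human PAD4 (SUMO tag cleaved), 2 mM CaCl2, 3 mM BAEE, pH 7.6 MOPS buffer, 25 °C for 2 h following a 30-min compound preincubation.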
Take `COc1cc(C(=O)N2C[C@H](N)CC[C@@H]2C)cc2nc(-c3cc4ccc(N(C(F)F)S(C)(=O)=O)nc4n3CC3CC3)c(CC3CC3)n12` [Example 405, ~{N}-[2-[7-[(2~{S},5~{R})-5-amino-2-methylpiperidine-1-carbonyl]-3-(cyclopropylmethyl)-5-methoxyimidazo[1,2-a]pyridin-2-yl]-1-(cyclopropylmethyl)pyrrolo [2,3-b]pyridin-6-yl]-~{N}-(difluoromethyl) methanesulfonamide]: the IC50 (commonly the concentration that gives 50% inhibition) was determined as 589 nM.

On to `CCC(NC(C)=O)c1ccc2cc(-c3nc4cc(C(=O)N5CCC[C@@H](N)C5)cc(OC)n4c3C)n(CC3CC3)c2n1` (stereo partly shown) [Example 193, ~{N}-[1-[2-[7-[(3~{R})-3-aminopiperidine-1-carbonyl]-5-methoxy-3-methylimidazo [1,2-a]pyridin-2-yl]-1-(cyclopropylmethyl)pyrrolo [2,3-b]pyridin-6-yl]propyl]acetamide], for which the IC50 is 400 nM.

As to `CCc1ccc2cc(-c3nc4cc(C(=O)N5CCC[C@@H](N)C5)cc(OC)n4c3C3CC3)n(CC3CC3)c2n1` [Example 585, [(3~{R})-3-aminopiperidin-1-yl]-[3-cyclopropyl-2-[1-(cyclopropylmethyl)-6-ethylpyrrolo[2,3-b]pyridin-2-yl]-5-methoxyimidazo [1,2-a]pyridin-7-yl]methanone], the IC50 came to 174 nM.

For the compound `COc1cc(C(=O)N2[C@H]3CC[C@@H]2[C@H](N)C3)cc2nc(-c3cc4ccc([C@@H](C)NC(C)=O)nc4n3CC3CC3)c(C3CC3)n12` [Example 178, ~{N}-[(1~{R})-1-[2-[7-[(1~{R},2~{R},4~{S})-2-amino-7-azabicyclo[2.2.1]heptane-7-carbonyl]-3-cyclopropyl-5-methoxyimidazo [1,2-a]pyridin-2-yl]-1-(cyclopropylmethyl)pyrrolo [2,3-b]pyridin-6-yl]ethyl] acetamide], the IC50 amounted to 89.4 nM.

`CC1(c2c(-c3cc4ccc(N(C(F)F)S(C)(=O)=O)nc4n3CC3CC3)nc3cc(C(=O)N4CCC[C@@H](N)C4)ccn23)CC1` [Example 435, ~{N}-[2-[7-[(3~{R})-3-aminopiperidine-1-carbonyl]-3-(1-methylcyclopropyl)imidazo[1,2-a]pyridin-2-yl]-1-(cyclopropylmethyl)pyrrolo[2,3-b]pyridin-6-yl]-~{N}-(difluoromethyl) methanesulfonamide]: the IC50 was 11300 nM.

Regarding `COc1cc(C(=O)N2CCC3(CCCCN3)C2)cc2nc(-c3cc4ccc([C@@H](C)NC(=O)C56CC(F)(C5)C6)nc4n3CC3CC3)c(C)n12` (stereo partly shown) [Example 4, ~{N}-[(1~{R})-1-[1-(cyclopropylmethyl)-2-[7-(2,6-diazaspiro [4.5]decane-2-carbonyl)-5-methoxy-3-methylimidazo[1,2-a]pyridin-2-yl]pyrrolo[2,3-b]pyridin-6-yl]ethyl]-3-fluorobicyclo[1.1.1] pentane-1-carboxamide], the IC50 turned out to be 23400 nM.

For `COc1cc(C(=O)N2[C@H]3CC[C@@H]2[C@H](N)C3)cc2nc(-c3cc4ccc([C@@H](C)NC(=O)N5CC(OC(F)F)C5)nc4n3CC3CC3)c(C)n12` [Example 205, ~{N}-[(1~{R})-1-[2-[7-[(1~{R},2~{R},4~{S})-2-amino-7-azabicyclo[2.2.1]heptane-7-carbonyl]-5-methoxy-3-methylimidazo [1,2-a]pyridin-2-yl]-1-(cyclopropylmethyl)pyrrolo [2,3-b]pyridin-6-yl]ethyl]-3-(difluoromethoxy)azetidine-1-carboxamide], the IC50 came out at 34.8 nM.

Turning to `CCn1cc(C(=O)N[C@H](C)c2ccc3cc(-c4nc5cc(C(=O)N6[C@H]7CC[C@@H]6[C@H](N)C7)cc(OC)n5c4C)n(CC4CC4)c3n2)cn1` [Example 77, ~{N}-[(1~{R})-1-[2-[7-[(1~{R},2~{R},4~{S})-2-amino-7-azabicyclo[2.2.1]heptane-7-carbonyl]-5-methoxy-3-methylimidazo [1,2-a]pyridin-2-yl]-1-(cyclopropylmethyl)pyrrolo [2,3-b]pyridin-6-yl]ethyl]-1-ethylpyrazole-4-carboxamide], the IC50 stood at 30.7 nM.

With `COc1cc(C(=O)N2[C@H]3CC[C@@H]2[C@H](N)C3)cc2nc(-c3cc4ccc([C@@H](C)Nc5ncc(F)cn5)nc4n3CC3CC3)c(C)n12` [Example 264, [(1~{R},2~{R},4~{S})-2-amino-7-azabicyclo [2.2.1]heptan-7-yl]-[2-[1-(cyclopropylmethyl)-6-[(1~{R})-1-[(5-fluoropyrimidin-2-yl)amino]ethyl]pyrrolo[2,3-b]pyridin-2-yl]-5-methoxy-3-methylimidazo[1,2-a]pyridin-7-yl]methanone], the IC50 is 134 nM.

`CCc1ccc2cc(-c3nc4cc(C(=O)N5[C@H]6CC[C@@H]5[C@H](N)C6)cc(OC)n4c3C)n(-c3ccccc3)c2n1` [Example 512, [(1~{R},2~{R},4~{S})-2-amino-7-azabicyclo [2.2.1]heptan-7-yl]-[2-(6-ethyl-1-phenylpyrrolo [2,3-b]pyridin-2-yl)-5-methoxy-3-methylimidazo [1,2-a]pyridin-7-yl]methanone]: the concentration for half-maximal inhibition (IC50) is 17700 nM.

In the case of `CCOC(=O)C1CC1c1c(-c2cc3ccc(N(C(F)F)S(C)(=O)=O)nc3n2CC2CC2)nc2cc(C(=O)N3CCC[C@@H](N)C3)ccn12` (stereo partly shown) [Example 432, ethyl 2-[7-[(3~{R})-3-aminopiperidine-1-carbonyl]-2-[1-(cyclopropylmethyl)-6-[difluoromethyl (methylsulfonyl)amino]pyrrolo[2,3-b]pyridin-2-yl]imidazo[1,2-a]pyridin-3-yl]cyclopropane-1-carboxylate], the IC50 is 2490 nM.

`CCc1ccc2cc(-c3nc4cc(C(=O)N5CCC[C@@H](N)C5)cc(OC)n4c3C3CCC3)n(CC3CC3)c2n1` [Example 576, [(3~{R})-3-aminopiperidin-1-yl]-[3-cyclobutyl-2-[1-(cyclopropylmethyl)-6-ethylpyrrolo[2,3-b]pyridin-2-yl]-5-methoxyimidazo [1,2-a]pyridin-7-yl]methanone]: the IC50 stood at 2150 nM.

As for `COc1cc(C(=O)N2[C@H]3CC[C@@H]2[C@H](N)C3)cc2nc(-c3cc4ccc([C@@H](C)NC(=O)C(C)(C)C)nc4n3CC34CC(C3)C4)c(C3CC3)n12` [Example 486, N—((R)-1-(2-(7-((1R,2R,4S)-2-amino-7-azabicyclo[2.2.1]heptane-7-carbonyl)-3-cyclopropyl-5-methoxyimidazo[1,2-a]pyridin-2-yl)-1-(bicyclo[1.1.1]pentan-1-ylmethyl)-1H-pyrrolo[2,3-b]pyridin-6-yl)ethyl)pivalamide], the IC50 came to 666 nM.

For the compound `CCc1c(-c2cc3ccc(N(C(F)F)S(C)(=O)=O)nc3n2CC2CC2)nc2cc(C(=O)N3CC[C@H](O)[C@H](N)C3)cc(OC)n12` [Example 404, ~{N}-[2-[7-[(3~{R},4~{S})-3-amino-4-hydroxypiperidine-1-carbonyl]-3-ethyl-5-methoxyimidazo[1,2-a]pyridin-2-yl]-1-(cyclopropylmethyl)pyrrolo [2,3-b]pyridin-6-yl]-~{N}-(difluoromethyl) methanesulfonamide], the IC50 was found to be 10600 nM.

In the case of `COc1cc(C(=O)N2[C@H]3CC[C@@H]2[C@H](N)C3)cc2nc(-c3cc4ccc([C@@H](C)NC(=O)C56CC(c7ccccc7)(C5)C6)nc4n3CC3CC3)c(C)n12` [Example 147, ~{N}-[(1~{R})-1-[2-[7-[(1~{R},2~{R},4~{S})-2-amino-7-azabicyclo[2.2.1]heptane-7-carbonyl]-5-methoxy-3-methylimidazo [1,2-a]pyridin-2-yl]-1-(cyclopropylmethyl)pyrrolo [2,3-b]pyridin-6-yl]ethyl]-3-phenylbicyclo[1.1.1]pentane-1-carboxamide], the IC50 was 403 nM.

`COc1cc(C(=O)N2C[C@@H]3CC[C@H]2[C@H](N)C3)cc2nc(-c3cc4ccc(N(C(F)F)S(C)(=O)=O)nc4n3CC3CC3)c(C)n12` [Example 377, ~{N}-[2-[7-[(1~{R},4~{S}, 6~{R})-6-amino-2-azabicyclo[2.2.2]octane-2-carbonyl]-5-methoxy-3-methylimidazo[1,2-a]pyridin-2-yl]-1-(cyclopropylmethyl)pyrrolo [2,3-b]pyridin-6-yl]-~{N}-(difluoromethyl) methanesulfonamide]: the IC50 was found to be 18200 nM.

With `COc1cc(C(=O)N2[C@H]3CC[C@@H]2[C@H](N)C3)cc2nc(-c3cc4ccc([C@@H](C)NC(=O)C5(C(F)(F)F)CCOCC5)nc4n3CC3CC3)c(C)n12` [Example 67, ~{N}-[(1~{R})-1-[2-[7-[(1~{R},2~{R},4~{S})-2-amino-7-azabicyclo [2.2.1]heptane-7-carbonyl]-5-methoxy-3-methylimidazo [1,2-a]pyridin-2-yl]-1-(cyclopropylmethyl)pyrrolo[2,3-b]pyridin-6-yl]ethyl]-4-(trifluoromethyl)oxane-4-carboxamide], the IC50 was 124 nM.

Turning to `COc1cc(C(=O)N2[C@H]3CC[C@@H]2[C@H](N)C3)cc2nc(-c3cc4ccc([C@@H](C)NC(=O)N5CC(C(N)=O)C5)nc4n3CC3CC3)c(C)n12` [Example 225, 1-~{N}-[(1~{R})-1-[2-[7-[(1~{R},2~{R},4~{S})-2-amino-7-azabicyclo[2.2.1]heptane-7-carbonyl]-5-methoxy-3-methylimidazo [1,2-a]pyridin-2-yl]-1-(cyclopropylmethyl)pyrrolo [2,3-b]pyridin-6-yl]ethyl]azetidine-1,3-dicarboxamide], the IC50 amounted to 81.3 nM.

`COc1cc(C(=O)N2[C@H]3CC[C@@H]2[C@H](N)C3)cc2nc(-c3cc4ccc([C@@H](C)NC(=O)C56CC(CO5)C6)nc4n3CC3CC3)c(C)n12` [Example 132, ~{N}-[(1~{R})-1-[2-[7-[(1~{R},2~{R},4~{S})-2-amino-7-azabicyclo[2.2.1]heptane-7-carbonyl]-5-methoxy-3-methylimidazo [1,2-a]pyridin-2-yl]-1-(cyclopropylmethyl)pyrrolo [2,3-b]pyridin-6-yl]ethyl]-2-oxabicyclo[2.1.1]hexane-1-carboxamide]: the IC50 is 698 nM.
